Results: US20230331739A1, “INDOLO HEPTAMYL OXIME ANALOG CRYSTAL AS PARP INHIBITOR AND METHOD FOR PREPARING SAME” (CHIA TAI TIANQING PHARMACEUTICAL GROUP CO., LTD., priority 2020, published 2023)
Like-named read-outs stand apart in the source and are kept apart here.

How the values were obtained:
[1] = test system: human breast cancer MDA-MB-436 cell xenograft tumor; test: In vivo pharmacodynamic study in subcutaneous MDA-MB-436 xenograft tumor model; set-up: species or system BALB/c nude mouse; details: for Tumor volume (day 27): Mean ± SEM; for T/C / TGI: day 27
Source text: Objective: To study the in vivo efficacy of the test compound in BALB/c nude mouse model with subcutaneous human breast cancer MDA-MB-436 cell xenograft tumor.
Materials: Age and body weight: female BALB/c nude mice, aged 6-8 weeks, 18-22 g. The study started after 3-7 days of adaptive feeding. The animal information card of each cage was labeled with the following information about the animals: number, sex, strain, receipt date, regime, study number, group and start of treatment. All the cages, padding and drinking water were sterilized before use. The cages, feed and drinking water were refreshed twice a week. The animals were identified with ear tags. Test samples: Nirapariband and compound 1. All the test samples were prepared with 10% DMSO+90% (20% HP-β-CD) as vehicle, and the blank control group was administered with the vehicle alone.
1. Cell culturing: Human breast cancer MDA-MB-436 cells (ATCC, Manassas, VA, catalog No.: HTB-130) were cultured in an RPMI-1640 culture medium containing 10% fetal bovine serum and 1% Anti-anti through in vitro monolayer culture in an incubator at 37° C./5% CO2. The cells were digested with trypsin-EDTA twice a week for passaging as per conventional practice. At a cell saturation of 80%-90% and a required number, the cells were collected, counted and grafted.
2. Tumor cell grafting (tumor grafting): 0.2 mL (1×10^7 cells) of MDA-MB-436 cells (along with matrigel in a volume ratio of 1:1) was subcutaneously grafting on the right back of each mouse, and the mice were randomly divided into groups for administration after the mean tumor volume was approximately 318 mm^3.
3. Daily observation of animals: the animals were monitored daily for health and death, and routine examinations include observation of the effect on tumor growth and the therapy on the daily performance of the animals, such as behavioral activities, food and water intake, change in body weight, appearance, or other abnormal conditions.
4. Tumor measurement and experimental indexes: the experimental indexes were to investigate whether the tumor growth was inhibited or delayed or the tumor was cured. Tumor diameters were measured twice weekly using a vernier caliper. The tumor volume was calculated using the following formula: V=0.5 a×b^2, where a and b represent the long diameter and short diameter of the tumor, respectively. The anti-tumor efficacy of the compound was evaluated by TGI (%) or relative tumor proliferation rate T/C (%). TGI (%) refers to the tumor growth inhibition. Calculation of TGI (%): TGI (%)=[(1−(mean tumor volume at the end of administration of a treatment group−mean tumor volume at the start of administration of the treatment group))/(mean tumor volume at the end of treatment of the solvent control group−mean tumor volume at the start of treatment of the solvent control group)]×100%. The calculation formula for relative tumor proliferation rate T/C (%) was as follows: T/C (%)=TRTV/CRTV×100% (TRTV: RTV of treatment group; CRTV: RTV of negative control group). Relative tumor volume (RTV) was calculated based on the results of tumor measurement. The calculation formula was: RTV=Vt/V0, where V0 was the mean tumor volume measured at the time of grouping and administration (i.e., do), Vt was the mean tumor volume at a certain measurement, and the data of TRTV and CRTV were obtained on the same day.
5. Statistical analysis: including mean and standard error of mean (SEM) of tumor volume at each time point in each group. […] The experimental data were analyzed using one-way ANOVA and Games-Howell method. All the data were analyzed using SPSS 17.0. p<0.05 was defined as significance.

[2] = molecular target: CYP2C19 (Homo sapiens (Human), UniProt P33261); test: Inhibition against cytochrome P450 isoenzymes, CYP2C19; format: in vitro ADME; details: human liver microsomes
Sequence of CYP2C19 (P33261 whole entry): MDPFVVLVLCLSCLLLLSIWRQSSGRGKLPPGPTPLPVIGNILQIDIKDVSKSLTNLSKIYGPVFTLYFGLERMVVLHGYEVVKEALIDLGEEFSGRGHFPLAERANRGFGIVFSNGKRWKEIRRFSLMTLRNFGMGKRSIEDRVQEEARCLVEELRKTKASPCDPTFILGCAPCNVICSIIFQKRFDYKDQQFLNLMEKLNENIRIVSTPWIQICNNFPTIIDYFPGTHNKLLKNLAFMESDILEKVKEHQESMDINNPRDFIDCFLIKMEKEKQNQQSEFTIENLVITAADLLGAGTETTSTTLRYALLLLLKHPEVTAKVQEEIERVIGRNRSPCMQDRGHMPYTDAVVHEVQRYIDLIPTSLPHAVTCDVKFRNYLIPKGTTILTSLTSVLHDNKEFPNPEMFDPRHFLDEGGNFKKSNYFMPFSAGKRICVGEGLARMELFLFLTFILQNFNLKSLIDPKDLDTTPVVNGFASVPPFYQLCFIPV
Protocol: The inhibition of the test compound against different subtypes of the human cytochrome P450 isoenzyme was determined. The test compound, a standard inhibitor (100×final concentration) and a mixed substrate working solution were prepared; the microsomes frozen in a refrigerator at −80° C. were taken out and thawed. […]

[3] = Single-dose pharmacokinetic study in mice; format: in vivo, male C57BL/6 mice
Protocol: Objectives: To evaluate the pharmacokinetic behavior in male C57BL/6 mice and to determine the drug concentrations of the compound in the plasma, liver and cerebrospinal fluid after a single dose.
Procedures: Healthy adult male C57BL/6 mice were selected for intragastric administration. The candidate compound was mixed with an appropriate amount of 10% DMSO/90% (20% hydroxypropyl-@-cyclodextrin), vortexed and sonicated to prepare a 0.5 mg/mL clear solution for later use. After the mice were administered intravenously at 1 mg/kg and orally at 5 mg/kg, whole blood was collected at certain time points. Plasma was separated, and liver and cerebrospinal fluid were collected. After pretreatment of the samples, the drug concentration was measured by LC-MS/MS, and pharmacokinetic parameters were calculated using Phoenix WinNonlin software.

[4] = male, C57BL/6, mouse, plasma, IV: 1 mg/kg PO: 5 mg/kg

For `C[C@]1(c2ccc(-c3[nH]c4cc(F)cc5c4c3CONC5=O)cc2)CCCN1` [Compound 1], the “Tumor volume (day 27)” value ([1]; 12.5 mg/kg PO QD × 28 days) was 377 ± 149 mm^3, the T/C ([1]; 12.5 mg/kg PO QD × 28 days) was 23.79% and the TGI ([1]; 12.5 mg/kg PO QD × 28 days) was 95.34%. For the same molecule, the “Tumor volume (day 27)” value ([1]; 25 mg/kg PO QD × 28 days) was 132 ± 32 mm^3, the T/C ([1]; 25 mg/kg PO QD × 28 days) was 8.31% and the TGI ([1]; 25 mg/kg PO QD × 28 days) was 114.69%. The “Tumor volume (day 27)” value ([1]; 50 mg/kg PO QD × 28 days) was 91 ± 14 mm^3, the T/C ([1]; 50 mg/kg PO QD × 28 days) was 5.76% and the TGI ([1]; 50 mg/kg PO QD × 28 days) was 117.86%. It also gave an IC50 [2] of 8.33 µM, a Maximum concentration ([3]; IV: 1 mg/kg PO: 5 mg/kg) of 240 nM and an AUC(0-t) ([3]; male, C57BL/6, mouse, plasma, IV 1 mg/kg, read-out: AUC0-last (intravenous injection)) of 0.958 µM·h. For the same molecule, the bioavailability [3, 4] was 24.8%, the half-life [3, 4] was 3.02 h and the Vd ([3]; male, C57BL/6, mouse, plasma, IV: 1 mg/kg PO: 5 mg/kg, read-out: Apparent volume of distribution) was 9.44 L/kg. For the same molecule, the clearance ([3]; male, C57BL/6, mouse, plasma, IV: 1 mg/kg PO: 5 mg/kg, read-out: Clearance rate) was 41 mL/min/kg and the AUC(0-t) ([3]; male, C57BL/6, mouse, plasma, PO 5 mg/kg, read-out: AUC0-last (oral)) was 1.19 µM·h.
